Like-named read-outs stand apart in the source and are kept apart here.
Columns and labels:
yeast α-glucosidase [1] = molecular target: T1, yeast α-glucosidase (Saccharomyces cerevisiae, UniProt P53341); assay: biochemical; format: biochemical; conditions: for diminished inhibitory activity relative to compound 11d: replacement of methoxy substituent of 11d
yeast α-glucosidase [2] = molecular target: T1, yeast α-glucosidase; assay: Kinetic study of α-glucosidase inhibition (Lineweaver–Burk plots); format: biochemical; conditions: for mechanism of α-glucosidase inhibition: Lineweaver–Burk plots, both Vmax and Km decreased; for Ki: Lineweaver–Burk secondary plot, substrate p-nitrophenyl-glucopyranoside 1–4 mM
Excerpt: Then, the Lineweaver-Burke plots were depicted using by the reciprocal of velocity and substrate concentration (Fig. 5).

[3] = system: normal human dermal fibroblast (HDF) cell line; assay: In vitro cytotoxicity assay; format: cell-based; conditions: HDF cells, 50 μM concentration
Method: To assess of the cytotoxic effects of the new synthesized compounds, cytotoxicity of compounds 11d and 11n as the representative compounds was evaluated against the normal human dermal fibroblast (HDF) cell line.
Evaluation of cytotoxic effects of the synthesized compounds 11d and 11n was performed exactly based on our previous report.

[4] = read-out: IC50 (anti-α-glucosidase activity)

T1 sequence (P53341 whole entry): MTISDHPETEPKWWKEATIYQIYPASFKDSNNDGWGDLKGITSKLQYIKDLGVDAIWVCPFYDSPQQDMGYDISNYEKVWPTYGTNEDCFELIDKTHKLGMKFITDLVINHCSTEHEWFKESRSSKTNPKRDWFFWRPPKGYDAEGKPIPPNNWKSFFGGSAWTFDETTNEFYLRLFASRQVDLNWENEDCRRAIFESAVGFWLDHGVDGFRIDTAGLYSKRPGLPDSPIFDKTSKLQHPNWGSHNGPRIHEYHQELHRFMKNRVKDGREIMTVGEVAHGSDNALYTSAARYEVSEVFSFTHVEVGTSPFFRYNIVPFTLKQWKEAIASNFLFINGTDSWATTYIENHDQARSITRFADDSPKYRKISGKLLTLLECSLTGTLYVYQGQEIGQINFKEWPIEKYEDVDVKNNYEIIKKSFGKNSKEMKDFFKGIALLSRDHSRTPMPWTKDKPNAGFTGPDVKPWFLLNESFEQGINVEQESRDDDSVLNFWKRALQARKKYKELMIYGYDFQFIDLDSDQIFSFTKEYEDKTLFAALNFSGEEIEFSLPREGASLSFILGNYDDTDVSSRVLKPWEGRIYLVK

SMILES	IC50 (yeast α-glucosidase [1]; [4]) [µM]	melting point [°C]	IC50 (yeast α-glucosidase [1]) [µM]	other results
O=C(Cn1cc(COc2ccc(/C=N/NC(=O)c3cc4ccccc4[nH]3)cc2)nn1)Nc1ccccc1 [Compound 11a, (E)-2-(4-((4-((2-(1H-indole-2-carbonyl)hydrazono)methyl)phenoxy)methyl)-1H-1,2,3-triazol-1-yl)-N-phenylacetamide]	15.2 ± 0.18	194 to 196	–	–
Cc1ccccc1NC(=O)Cn1cc(COc2ccc(/C=N/NC(=O)c3cc4ccccc4[nH]3)cc2)nn1 [Compound 11b, (E)-2-(4-((4-((2-(1H-indole-2-carbonyl)hydrazono)methyl)phenoxy)methyl)-1H-1,2,3-triazol-1-yl)-N-(o-tolyl)acetamide]	8.88 ± 0.07	–	–	mechanism of α-glucosidase inhibition (yeast α-glucosidase [2]): uncompetitive inhibitors; Ki (yeast α-glucosidase [2]): 8.5 µM
Cc1ccc(NC(=O)Cn2cc(COc3ccc(/C=N/NC(=O)c4cc5ccccc5[nH]4)cc3)nn2)cc1 [Compound 11c, (E)-2-(4-((4-((2-(1H-indole-2-carbonyl)hydrazono)methyl)phenoxy)methyl)-1H-1,2,3-triazol-1-yl)-N-(p-tolyl)acetamide]	19.12 ± 0.08	–	–	diminished inhibitory activity relative to compound 11d (yeast α-glucosidase [1]): 3 folds
COc1ccc(NC(=O)Cn2cc(COc3ccc(/C=N/NC(=O)c4cc5ccccc5[nH]4)cc3)nn2)cc1 [Compound 11d, (E)-2-(4-((4-((2-(1H-indole-2-carbonyl)hydrazono)methyl)phenoxy)methyl)-1H-1,2,3-triazol-1-yl)-N-(4-methoxyphenyl)acetamide]	6.31 ± 0.03	–	–	times more potent than acarbose (yeast α-glucosidase [1]; ratio of IC50 values vs acarbose): 118.8 times; mechanism of α-glucosidase inhibition (yeast α-glucosidase [2]): uncompetitive inhibitors; Ki (yeast α-glucosidase [2]): 6.3 µM; cytotoxicity on normal cell line [3]: non-cytotoxic
O=C(Cn1cc(COc2ccc(/C=N/NC(=O)c3cc4ccccc4[nH]3)cc2)nn1)Nc1ccccc1Cl [Compound 11e, (E)-2-(4-((4-((2-(1H-indole-2-carbonyl)hydrazono)methyl)phenoxy)methyl)-1H-1,2,3-triazol-1-yl)-N-(2-chlorophenyl)acetamide]	–	> 250	26.97 ± 0.25	–
O=C(Cn1cc(COc2ccc(/C=N/NC(=O)c3cc4ccccc4[nH]3)cc2)nn1)Nc1ccc(Cl)cc1 [Compound 11f, (E)-2-(4-((4-((2-(1H-indole-2-carbonyl)hydrazono)methyl)phenoxy)methyl)-1H-1,2,3-triazol-1-yl)-N-(4-chlorophenyl)acetamide]	9.53 ± 0.12	174 to 176	–	diminished inhibitory activity relative to compound 11d (yeast α-glucosidase [1]): 1.5 folds
O=C(Cn1cc(COc2ccc(/C=N/NC(=O)c3cc4ccccc4[nH]3)cc2)nn1)Nc1ccc(Br)cc1 [Compound 11g, (E)-2-(4-((4-((2-(1H-indole-2-carbonyl)hydrazono)methyl)phenoxy)methyl)-1H-1,2,3-triazol-1-yl)-N-(4-bromophenyl)acetamide]	49.89 ± 0.09	–	–	diminished inhibitory activity relative to compound 11d (yeast α-glucosidase [1]): 8 folds
Cc1cc(NC(=O)Cn2cc(COc3ccc(/C=N/NC(=O)c4cc5ccccc5[nH]4)cc3)nn2)ccc1[N+](=O)[O-] [Compound 11h, (E)-2-(4-((4-((2-(1H-indole-2-carbonyl)hydrazono)methyl)phenoxy)methyl)-1H-1,2,3-triazol-1-yl)-N-(3-methyl-4-nitrophenyl)acetamide]	–	200 to 202	35.11 ± 0.07	–
COc1cc(/C=N/NC(=O)c2cc3ccccc3[nH]2)ccc1OCc1cn(CC(=O)Nc2ccccc2)nn1 [Compound 11i, (E)-2-(4-((4-((2-(1H-indole-2-carbonyl)hydrazono)methyl)-2-methoxyphenoxy)methyl)-1H-1,2,3-triazol-1-yl)-N-phenylacetamide]	–	–	11.3 ± 0.15	–
COc1ccc(NC(=O)Cn2cc(COc3ccc(/C=N/NC(=O)c4cc5ccccc5[nH]4)cc3OC)nn2)cc1 [Compound 11j, (E)-2-(4-((4-((2-(1H-indole-2-carbonyl)hydrazono)methyl)-2-methoxyphenoxy)methyl)-1H-1,2,3-triazol-1-yl)-N-(4-methoxyphenyl)acetamide]	24.19 ± 0.1	–	–	–
COc1cc(/C=N/NC(=O)c2cc3ccccc3[nH]2)ccc1OCc1cn(CC(=O)Nc2ccc(Cl)cc2)nn1 [Compound 11k, (E)-2-(4-((4-((2-(1H-indole-2-carbonyl)hydrazono)methyl)-2-methoxyphenoxy)methyl)-1H-1,2,3-triazol-1-yl)-N-(4-chlorophenyl)acetamide]	31.56 ± 0.12	184 to 186	–	–
COc1cc(/C=N/NC(=O)c2cc3ccccc3[nH]2)ccc1OCc1cn(CC(=O)Nc2cccc(Cl)c2Cl)nn1 [Compound 11l, (E)-2-(4-((4-((2-(1H-indole-2-carbonyl)hydrazono)methyl)-2-methoxyphenoxy)methyl)-1H-1,2,3-triazol-1-yl)-N-(2,3-dichlorophenyl)acetamide]	–	–	18.2 ± 0.81	–
COc1cc(/C=N/NC(=O)c2cc3ccccc3[nH]2)ccc1OCc1cn(CC(=O)Nc2cc(Cl)cc(Cl)c2)nn1 [Compound 11m, (E)-2-(4-((4-((2-(1H-indole-2-carbonyl)hydrazono)methyl)-2-methoxyphenoxy)methyl)-1H-1,2,3-triazol-1-yl)-N-(3,5-dichlorophenyl)acetamide]	–	247 to 249	14.2 ± 0.21	–
COc1cc(/C=N/NC(=O)c2cc3ccccc3[nH]2)ccc1OCc1cn(CC(=O)Nc2ccc(Br)cc2)nn1 [Compound 11n, (E)-2-(4-((4-((2-(1H-indole-2-carbonyl)hydrazono)methyl)-2-methoxyphenoxy)methyl)-1H-1,2,3-triazol-1-yl)-N-(4-bromophenyl)acetamide]	8.3 ± 0.16	–	–	mechanism of α-glucosidase inhibition (yeast α-glucosidase [2]): uncompetitive inhibitors; Ki (yeast α-glucosidase [2]): 8.3 µM; cytotoxicity on normal cell line [3]: non-cytotoxic
COc1cc(/C=N/NC(=O)c2cc3ccccc3[nH]2)ccc1OCc1cn(CC(=O)Nc2cccc([N+](=O)[O-])c2Cl)nn1 [Compound 11o, (E)-2-(4-((4-((2-(1H-indole-2-carbonyl)hydrazono)methyl)-2-methoxyphenoxy)methyl)-1H-1,2,3-triazol-1-yl)-N-(2-chloro-3-nitrophenyl)acetamide]	–	> 250	12.67 ± 0.05	–
